pIC50: −log10 of the molar value.
Tests used:
PI3Kα = PI3Kα (Homo sapiens, UniProt P42336); experiment: PI3K Biochemical Assays (ATP consumption, luciferase-luciferin chemiluminescence); details: PI3Kα 1.5 nM, ATP 1 μM, PIP2 10 μM; percent of ATP consumed
How it was run: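 Kinase activity read as percent ATP consumed via luciferase-luciferin chemiluminescence. 1.5 nM enzyme, 1 μM ATP, 10 μM PIP2 in 50 mM Tris pH 7.5, 1 mM EGTA, 10 mM MgCl2, 1 mM DTT, 0.03% CHAPS; ~2 h at ambient temperature, ATP consumption kept to 40-60%.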

mTORC1 (mTOR/GbL/Raptor) = mTORC1 (mTOR/GbL/Raptor) (Homo sapiens, UniProt P42345); experiment: mTOR/GbL/Raptor (mTORC1) ELISA Assay; type: biochemical; details: 0.2 nM mTORC1, 10 μM ATP, 50 nM NHis-tagged 4E-BP1; phosphorylation of 4E-BP1; read-out: IC50
How it was run: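 mTORC1 (0.2 nM) phosphorylated NHis-tagged 4E-BP1 (50 nM) with 10 μM ATP in 20 mM Hepes pH 7.2, 10 mM MnCl2, for 120 min at ambient temperature. Product was captured on Ni-chelate plates and detected with anti-phospho-4E-BP1 plus HRP secondary antibody by chemiluminescence.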

Chain of PI3Kα (P42336 whole entry): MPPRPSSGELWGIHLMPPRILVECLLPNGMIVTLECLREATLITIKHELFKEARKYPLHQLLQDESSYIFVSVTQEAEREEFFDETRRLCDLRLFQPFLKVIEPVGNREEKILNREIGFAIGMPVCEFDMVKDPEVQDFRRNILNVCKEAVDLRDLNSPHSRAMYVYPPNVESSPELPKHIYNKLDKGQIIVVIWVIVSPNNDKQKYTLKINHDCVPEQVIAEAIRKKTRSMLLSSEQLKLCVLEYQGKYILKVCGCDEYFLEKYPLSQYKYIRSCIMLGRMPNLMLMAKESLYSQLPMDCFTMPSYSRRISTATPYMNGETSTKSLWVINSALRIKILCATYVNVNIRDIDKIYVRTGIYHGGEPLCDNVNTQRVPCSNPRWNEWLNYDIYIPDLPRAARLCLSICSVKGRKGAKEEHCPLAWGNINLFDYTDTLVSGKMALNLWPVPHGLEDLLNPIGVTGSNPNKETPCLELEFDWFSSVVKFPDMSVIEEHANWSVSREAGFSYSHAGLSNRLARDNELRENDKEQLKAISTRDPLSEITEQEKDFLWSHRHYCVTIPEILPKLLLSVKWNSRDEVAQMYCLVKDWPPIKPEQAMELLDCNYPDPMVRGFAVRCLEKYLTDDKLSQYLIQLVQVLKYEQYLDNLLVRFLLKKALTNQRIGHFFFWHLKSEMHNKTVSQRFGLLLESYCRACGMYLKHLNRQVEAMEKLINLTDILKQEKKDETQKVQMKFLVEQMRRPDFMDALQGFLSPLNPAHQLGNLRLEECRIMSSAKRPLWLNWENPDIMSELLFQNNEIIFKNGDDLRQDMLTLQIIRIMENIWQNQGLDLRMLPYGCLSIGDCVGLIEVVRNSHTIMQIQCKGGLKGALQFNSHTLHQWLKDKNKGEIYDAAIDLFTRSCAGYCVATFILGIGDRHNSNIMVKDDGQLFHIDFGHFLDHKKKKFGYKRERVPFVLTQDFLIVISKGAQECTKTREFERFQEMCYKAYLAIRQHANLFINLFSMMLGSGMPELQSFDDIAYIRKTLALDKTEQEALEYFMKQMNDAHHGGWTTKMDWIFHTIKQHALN
Chain of PI3Kα (P27986 whole entry partner): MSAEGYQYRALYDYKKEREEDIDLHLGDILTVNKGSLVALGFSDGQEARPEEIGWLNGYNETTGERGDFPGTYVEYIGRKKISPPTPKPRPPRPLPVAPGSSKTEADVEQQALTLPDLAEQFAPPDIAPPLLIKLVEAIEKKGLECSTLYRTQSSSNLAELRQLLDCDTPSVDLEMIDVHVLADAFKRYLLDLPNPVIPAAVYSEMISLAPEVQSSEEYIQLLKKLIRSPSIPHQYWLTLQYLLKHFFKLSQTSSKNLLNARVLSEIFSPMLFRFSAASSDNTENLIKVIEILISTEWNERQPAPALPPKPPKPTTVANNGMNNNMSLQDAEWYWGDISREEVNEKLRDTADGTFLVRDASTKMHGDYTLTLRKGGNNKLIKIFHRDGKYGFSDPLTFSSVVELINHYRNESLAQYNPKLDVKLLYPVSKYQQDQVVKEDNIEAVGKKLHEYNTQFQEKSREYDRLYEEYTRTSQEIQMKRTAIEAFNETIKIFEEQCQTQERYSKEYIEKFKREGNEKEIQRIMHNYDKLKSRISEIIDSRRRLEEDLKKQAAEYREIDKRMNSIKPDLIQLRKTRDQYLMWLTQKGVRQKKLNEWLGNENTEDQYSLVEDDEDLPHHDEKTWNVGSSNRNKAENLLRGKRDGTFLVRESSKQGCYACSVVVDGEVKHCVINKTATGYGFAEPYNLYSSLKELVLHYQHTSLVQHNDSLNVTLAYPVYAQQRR

| SMILES | pIC50 (PI3Kα) | pIC50 (mTORC1 (mTOR/GbL/Raptor)) |
| --- | --- | --- |
| O=C1CCN(C(=O)N2CCOc3ccc(-c4ccc(-c5ncc[nH]5)cc4)cc3C2)[C@H](c2ccc(F)cc2)C1 [Compound 57, (2S)-2-(4-fluorophenyl)-1-({7-[4-(1H-imidazol-2-yl)phenyl]-2,3-dihydro-1,4-benzoxazepin-4(5H)-yl}carbonyl)piperidin-4-one] | ≥ 7.12 | ≥ 7.30 |
| O=C(N1CCC(CF)CC1)N1CCOc2ccc(-c3ccc(-c4ncc[nH]4)cc3)cc2C1 [Compound 58, 4-{[4-(fluoromethyl)piperidin-1-yl]carbonyl}-7-[4-(1H-imidazol-2-yl)phenyl]-2,3,4,5-tetrahydro-1,4-benzoxazepine] | 6.70 to 7.12 | ≥ 7.30 |
| O=C(N1CCOc2ccc(-c3ccc(-c4ncc[nH]4)cc3)cc2C1)N1[C@@H]2CC[C@H]1C[C@](O)(C(F)(F)F)C2 [Compound 59, 8-({7-[4-(1H-imidazol-2-yl)phenyl]-2,3-dihydro-1,4-benzoxazepin-4(5H)-yl}carbonyl)-3-(trifluoromethyl)-8-azabicyclo[3.2.1]octan-3-(endo)-ol] | ≥ 7.12 | ≥ 7.30 |
| CC1CCN(C(=O)N2CCOc3ccc(-c4ccc(-c5ncc[nH]5)cc4)cc3C2)CC1 [Compound 60, 7-[4-(1H-imidazol-2-yl)phenyl]-4-[(4-methylpiperidin-1-yl)carbonyl]-2,3,4,5-tetrahydro-1,4-benzoxazepine] | ≥ 7.12 | ≥ 7.30 |
| N#CC1CCN(C(=O)N2CCOc3ccc(-c4ccc(-c5ncc[nH]5)cc4)cc3C2)CC1 [Compound 61, 1-({7-[4-(1H-imidazol-2-yl)phenyl]-2,3-dihydro-1,4-benzoxazepin-4(5H)-yl}carbonyl)piperidine-4-carbonitrile] | 6.70 to 7.12 | ≥ 7.30 |
| O=C(N1CCC(C(F)F)CC1)N1CCOc2ccc(-c3ccc(-c4ncc[nH]4)cc3)cc2C1 [Compound 62, 4-{[4-(difluoromethyl)piperidin-1-yl]carbonyl}-7-[4-(1H-imidazol-2-yl)phenyl]-2,3,4,5-tetrahydro-1,4-benzoxazepine] | 6.70 to 7.12 | ≥ 7.30 |
| N#CC1CCN(C(=O)N2CCOc3ccc(-c4ccc(-c5ncc[nH]5)nc4)cc3C2)CC1 [Compound 63, 1-({7-[6-(1H-imidazol-2-yl)pyridin-3-yl]-2,3-dihydro-1,4-benzoxazepin-4(5H)-yl}carbonyl)piperidine-4-carbonitrile] | 6.00 to 6.30 | 6.60 to 7.30 |
| O=C1CCN(C(=O)N2CCOc3ccc(-c4ccc(C(=O)NCC(F)F)cc4)cc3C2)C(c2cccc(F)c2)C1 (centres unmarked) [Compound 64, N-(2,2-difluoroethyl)-4-(4-{[2-(3-fluorophenyl)-4-oxopiperidin-1-yl]carbonyl}-2,3,4,5-tetrahydro-1,4-benzoxazepin-7-yl)benzamide] | 6.00 to 6.30 | 6.60 to 7.30 |
| Cc1nc2ccc(-c3ccc4c(c3)CN(C(=O)N3CCCC[C@@H]3c3ccccc3)CCO4)cc2[nH]1 [Compound 66, 7-(2-methyl-1H-benzimidazol-6-yl)-4-{[(2R)-2-phenylpiperidin-l-yl]carbonyl}-2,3,4,5-tetrahydro-1,4-benzoxazepine] | ≥ 7.12 | ≥ 7.30 |
| Cc1nc2ccc(-c3ccc4c(c3)CN(C(=O)N3CCC(F)(F)CC3)CCO4)cc2[nH]1 [Compound 67, 4-[(4,4-difluoropiperidin-1-yl)carbonyl]-7-(2-methyl-1H-benzimidazol-6-yl)-2,3,4,5-tetrahydro-1,4-benzoxazepine] | 5.52 to 6.00 | 6.15 to 6.60 |
| Cc1nc2ccc(-c3ccc4c(c3)CN(C(=O)N3CCC(O)CC3)CCO4)cc2[nH]1 [Compound 68, 1-{[7-(2-methyl-1H-benzimidazol-6-yl)-2,3-dihydro-1,4-benzoxazepin-4(5H)-yl]carbonyl}piperidin-4-ol] | 5.52 to 6.00 | 6.15 to 6.60 |
| Cc1nc2ccc(-c3ccc4c(c3)CN(C(=O)N3CCC(Cc5ccc(Cl)cc5)CC3)CCO4)cc2[nH]1 [Compound 69, 4-({4-[(4-chlorophenyl)methyl]piperidin-1-yl}carbonyl)-7-(2-methyl-1H-benzimidazol-6-yl)-2,3,4,5-tetrahydro-1,4-benzoxazepine] | 5.52 to 6.00 | 6.60 to 7.30 |
| Cc1nc2ccc(-c3ccc4c(c3)CN(C(=O)N3CCC(Oc5ccc(Cl)cc5)CC3)CCO4)cc2[nH]1 [Compound 70, 4-({4-[(4-chlorophenyl)oxy]piperidin-1-yl}carbonyl)-7-(2-methyl-1H-benzimidazol-6-yl)-2,3,4,5-tetrahydro-1,4-benzoxazepine] | 5.52 to 6.00 | 6.60 to 7.30 |
| CCC1CCCN(C(=O)N2CCOc3ccc(-c4ccc5nc(C)[nH]c5c4)cc3C2)C1 (centres unmarked) [Compound 72, 4-[(3-ethylpiperidin-1-yl)carbonyl]-7-(2-methyl-1H-benzimidazol-6-yl)-2,3,4,5-tetrahydro-1,4-benzoxazepine] | 6.30 to 6.70 | 6.60 to 7.30 |
| Cc1nc2ccc(-c3ccc4c(c3)CN(C(=O)N3CCCCC3c3ccc(F)cc3)CCO4)cc2[nH]1 (centres unmarked) [Compound 73, 4-{[2-(4-fluorophenyl)piperidin-1-yl]carbonyl}-7-(2-methyl-1H-benzimidazol-6-yl)-2,3,4,5-tetrahydro-1,4-benzoxazepine] | ≥ 7.12 | ≥ 7.30 |
| CCOC(=O)[C@H]1CCCN(C(=O)N2CCOc3ccc(-c4ccc5nc(C)[nH]c5c4)cc3C2)C1 [Compound 74, ethyl (3S)-1-{[7-(2-methyl-1H-benzimidazol-6-yl)-2,3-dihydro-1,4-benzoxazepin-4(5H)-yl]carbonyl}piperidine-3-carboxylate] | 5.52 to 6.00 | 6.15 to 6.60 |
| CCOC(=O)C1CCCCN1C(=O)N1CCOc2ccc(-c3ccc4nc(C)[nH]c4c3)cc2C1 (centres unmarked) [Compound 75, ethyl 1-{[7-(2-methyl-1H-benzimidazol-6-yl)-2,3-dihydro-1,4-benzoxazepin-4(5H)-yl]carbonyl}piperidine-2-carboxylate] | 5.52 to 6.00 | 5.59 to 6.15 |
| CCC1CCC(C)N(C(=O)N2CCOc3ccc(-c4ccc5nc(C)[nH]c5c4)cc3C2)C1 (centres unmarked) [Compound 76, 4-[(5-ethyl-2-methylpiperidin-1-yl)carbonyl]-7-(2-methyl-1H-benzimidazol-6-yl)-2,3,4,5-tetrahydro-1,4-benzoxazepine] | 6.30 to 6.70 | 6.60 to 7.30 |
| Cc1nc2ccc(-c3ccc4c(c3)CN(C(=O)N3CCC(C)(O)CC3)CCO4)cc2[nH]1 [Compound 79, 4-methyl-1-{[7-(2-methyl-1H-benzimidazol-6-yl)-2,3-dihydro-1,4-benzoxazepin-4(5H)-yl]carbonyl}piperidin-4-ol] | 6.00 to 6.30 | 6.60 to 7.30 |
| Cc1nc2ccc(-c3ccc4c(c3)CN(C(=O)N3CCCCC3c3cccc(F)c3)CCO4)cc2[nH]1 (centres unmarked) [Compound 81, 4-{[2-(3-fluorophenyl)piperidin-1-yl]carbonyl}-7-(2-methyl-1H-benzimidazol-6-yl)-2,3,4,5-tetrahydro-1,4-benzoxazepine] | ≥ 7.12 | ≥ 7.30 |
| Cc1nc2ccc(-c3ccc4c(c3)CN(C(=O)N3CCC(C)(F)CC3)CCO4)cc2[nH]1 [Compound 83, 4-[(4-fluoro-4-methylpiperidin-1-yl)carbonyl]-7-(2-methyl-1H-benzimidazol-6-yl)-2,3,4,5-tetrahydro-1,4-benzoxazepine] | 5.52 to 6.00 | 6.60 to 7.30 |
| Cc1nc2ccc(-c3ccc4c(c3)CN(C(=O)N3CC5CCCC5C3)CCO4)cc2[nH]1 (centres unmarked) [Compound 84, 4-(hexahydrocyclopenta[c]pyrrol-2(1H)-ylcarbonyl)-7-(2-methyl-1H-benzimidazol-6-yl)-2,3,4,5-tetrahydro-1,4-benzoxazepine] | 6.30 to 6.70 | 6.60 to 7.30 |
| Cc1nc2ccc(-c3ccc4c(c3)CN(C(=O)N3CCCc5ccccc53)CCO4)cc2[nH]1 [Compound 85, 4-(3,4-dihydroquinolin-1(2H)-ylcarbonyl)-7-(2-methyl-1H-benzimidazol-6-yl)-2,3,4,5-tetrahydro-1,4-benzoxazepine] | 5.52 to 6.00 | 6.60 to 7.30 |
| Cc1nc2ccc(-c3ccc4c(c3)CN(C(=O)N3CCCCC3)CCO4)cc2[nH]1 [Compound 86, 7-(2-methyl-1H-benzimidazol-6-yl)-4-(piperidin-1-ylcarbonyl)-2,3,4,5-tetrahydro-1,4-benzoxazepine] | 6.30 to 6.70 | 6.15 to 6.60 |
| Cc1nc2ccc(-c3ccc4c(c3)CN(C(=O)N3CCCC(C)C3)CCO4)cc2[nH]1 (centres unmarked) [Compound 88, 7-(2-methyl-1H-benzimidazol-6-yl)-4-[(3-methylpiperidin-1-yl)carbonyl]-2,3,4,5-tetrahydro-1,4-benzoxazepine] | 6.30 to 6.70 | 6.15 to 6.60 |
| Cc1nc2ccc(-c3ccc4c(c3)CN(C(=O)N3CCCCCC3)CCO4)cc2[nH]1 [Compound 89, 4-(azepan-1-ylcarbonyl)-7-(2-methyl-1H-benzimidazol-6-yl)-2,3,4,5-tetrahydro-1,4-benzoxazepine] | 6.00 to 6.30 | 6.15 to 6.60 |
| Cc1nc2cc(-c3ccc4c(c3)CN(C(=O)N3C[C@H]5CC(C)C[C@H]5C3)CCO4)ccc2[nH]1 (stereo partly drawn) [Compound 90, 7-(2-methyl-1H-benzimidazol-5-yl)-4-{[(3aR,6aS)-5-methylhexahydrocyclopenta[c]pyrrol-2(1H)-yl]carbonyl}-2,3,4,5-tetrahydro-1,4-benzoxazepine] | 6.30 to 6.70 | 6.60 to 7.30 |
| Cc1nc2ccc(-c3ccc4c(c3)CN(C(=O)N(C)Cc3ccccc3)CCO4)cc2[nH]1 [Compound 92, N-methyl-7-(2-methyl-1H-benzimidazol-6-yl)-N-(phenylmethyl)-2,3-dihydro-1,4-benzoxazepine-4(5H)-carboxamide] | 6.00 to 6.30 | 6.60 to 7.30 |

Reference: patent US8637499B2, “Benzoxazepines as inhibitors of PI3K/mTOR and methods of their use and manufacture” (Exelixis, Inc., priority 2009, dated 2014)
